The values that follow come from patent publication US20230000869A1, “NOVEL ALK2 INHIBITORS AND METHODS FOR INHIBITING BMP SIGNALING” (The Brigham and Women's Hospital, Inc., priority 2017, published 2023).

Structures can show the parent of a compound that is named as a salt.

The test system of one experiment is TGFβ. As to the kind of experiment: Luciferase reporter gene assay for TGFβ activity (HEK293T SBE-Luc SMAD2/3 reporter, TGFβ agonist). Type of experiment: cell-based. The settings on record: Homo sapiens, HEK-293T, TGFβ 5 ng/mL. An outline of the steps: (§1)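 TGFβ activity was measured in HEK293T SBE-Luc cells stimulated with 5 ng/mL TGFβ, at compound 10000-30 nM final. ALK2 activity was measured in C2C12 BRE-Luc cells stimulated with 50 ng/mL BMP6, at compound 1000-0.3 nM final. Compound was preincubated 45 min in 2% FBS medium; after ≥18 h agonist exposure, luminescence was read and inhibition expressed as % signal loss versus background-subtracted agonist controls.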

The target in another experiment is T1, ALK2 (Mus musculus, UniProt P37172).
T1 construct: endogenous in cells; host or cells: C2C12-BRE (BRE-Luc reporter line, G418 selection)
T1 sequence (P37172 21-509): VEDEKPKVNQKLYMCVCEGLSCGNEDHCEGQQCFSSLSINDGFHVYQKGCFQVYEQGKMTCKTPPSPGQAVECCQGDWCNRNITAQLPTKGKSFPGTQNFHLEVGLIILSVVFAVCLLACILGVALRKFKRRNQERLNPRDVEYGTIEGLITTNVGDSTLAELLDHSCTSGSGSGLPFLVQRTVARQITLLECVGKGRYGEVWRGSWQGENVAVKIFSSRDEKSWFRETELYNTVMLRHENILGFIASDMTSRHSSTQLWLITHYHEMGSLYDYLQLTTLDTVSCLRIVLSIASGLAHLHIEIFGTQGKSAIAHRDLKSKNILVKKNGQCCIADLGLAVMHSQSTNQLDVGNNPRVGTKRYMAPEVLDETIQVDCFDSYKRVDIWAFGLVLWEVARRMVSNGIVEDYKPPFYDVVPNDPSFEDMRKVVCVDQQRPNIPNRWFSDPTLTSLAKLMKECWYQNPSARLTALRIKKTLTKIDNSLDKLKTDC
Description: Luciferase reporter gene assay for ALK2 activity (C2C12 BRE-Luc SMAD1/5/8 reporter, BMP6 agonist). Type of experiment: cell-based. The settings on record: BMP6 50 ng/mL. Summed up:
as §1

On to `COc1ccc2nccc(-c3cnn4cc(N5CCC(N6CCN(C)CC6)CC5)cnc34)c2n1` [Compound 60, 2-methoxy-8-[6-[4-(4-methylpiperazin-1-yl)-1-piperidyl]pyrazolo[1,5-a]pyrimidin-3-yl]-1,5-naphthyridine], for which the IC50 (usually the concentration at which inhibition is half-maximal) in the experiment on TGFβ was > 3000 nM; on ALK2, 42 nM.
In the case of `CNc1ccc2nccc(-c3cnn4cc(N5CCC(N6CCN(C)CC6)CC5)cnc34)c2c1` [Compound 279], the values for the IC50 in the experiment on TGFβ and on ALK2 were > 1000 nM and 55 nM, respectively.
The matching figures for `[2H]C([2H])([2H])N1CCN(C2CCN(c3cnc4c(-c5ccnc6cc(F)c(OC)cc56)cnn4c3)CC2)CC1` [Compound 45]: 376 nM and 24 nM.
For the compound `COc1cc2c(-c3cnn4cc(N5CCC(N6CCN(C)C(C)C6)CC5)cnc34)ccnc2cc1F` (centres unmarked) [Compound 41], the results for the IC50 in the experiment with TGFβ and on ALK2 were 1230 nM and 236 nM, respectively.
The like results for `COc1cc2c(-c3cnn4cc(N5CCC(N6C[C@H]7C[C@@H]6CN7C)CC5)cnc34)ccnc2cc1F` [Compound 55] were, in that order, 268 nM and 9 nM.
Regarding `CN1CCN(C2CN(c3cnc4c(N5CCN(C(=O)C6CC6)CC5)cnn4c3)C2)CC1` [Compound 339], the IC50 in the experiment on TGFβ was > 3000 nM; at ALK2 it was > 1000 nM.
As for `COc1cc2c(-c3cnn4cc(N5C[C@@H]6C(N(C)C)[C@@H]6C5)cnc34)ccnc2cc1F` (some centres unmarked) [Example 297], the figures for the IC50 in the experiment on TGFβ and on ALK2 were > 1000 nM and 21 nM, respectively.
The matching figures for `CN1CCN(C2CCN(c3cnc4c(-c5ccnc(N6CCOCC6)c5)cnn4c3)CC2)CC1` [Compound 219]: > 3000 nM and 381 nM.
Consider `CN1CCN(C2CCN(c3cnc4c(-c5ccnc6[nH]ccc56)cnn4c3)CC2)CC1` [Compound 247], for which the IC50 with TGFβ is > 3000 nM; on ALK2 it was 13 nM.
For `CN1CCN(C2CCN(c3cnc4c(-c5ccnc6c5ccn6C)cnn4c3)CC2)CC1` [Compound 253], the IC50 in the experiment on TGFβ was > 1000 nM; on ALK2, 193 nM.
The matching figures for `Cn1cc(-c2cnn3cc(N4CCC(N5CCOCC5)CC4)cnc23)c2ccccc2c1=O` [Compound 32]: 37 nM and 25 nM.
The like results for `COc1cc2c(-c3cnn4cc(N5CCC(N6CCN(C)CC6)C(C)C5)cnc34)ccnc2cc1F` (centres unmarked) [Compound 61] were, in that order, > 3000 nM and > 1000 nM.
For the compound `COc1cc2nccc(-c3cnn4cc(N5CCC(N6CCN(C)CC6)CC5)cnc34)c2cc1OC` [Compound 17], the IC50 is 271 nM in the experiment on TGFβ and 681 nM on ALK2.
On to `COc1cc2c(-c3cnn4cc(N5CCC(C(C)(C)N)CC5)cnc34)ccnc2cc1F` [Compound 211], for which the values for the IC50 in the experiment with TGFβ and on ALK2 were 416 nM and 51 nM, respectively.
The matching figures for `Cc1cc2nccc(-c3cnn4cc(N5CCC(N6CCN(C)CC6)CC5)cnc34)c2cc1C` [Compound 233]: 589 nM and 70 nM.
As to `CN1CCN(C2CCN(c3cnc4c(-c5ccnc6cccnc56)cnn4c3)CC2)CC1` [Compound 205], the IC50 in the experiment with TGFβ was > 3000 nM; at ALK2, 593 nM.
The like results for `Cc1ccc2nccc(-c3cnn4cc(N5CCC(N6CCN(C)CC6)CC5)cnc34)c2c1` [Compound 185] were, in that order, 514 nM and 22 nM.
As for `CS(=O)(=O)c1cccc(-c2cnn3cc(N4CCN(C5CCNCC5)CC4)cnc23)c1` [Compound 213, 3-(3-(methylsulfonyl)phenyl)-6-(4-(piperidin-4-yl)piperazin-1-yl)pyrazolo[1,5-a]pyrimidine trihydrochloride], the IC50 in the experiment on TGFβ and at ALK2 was < 1 nM throughout.
As for `Cc1cc(-c2cnn3cc(N4CCC(N5CCN(C)CC5)CC4)cnc23)c2ccc(F)cc2n1` [Compound 255], the IC50 in the experiment with TGFβ turned out to be 28 nM; on ALK2, 68 nM.
`CN1CCN(C2CCN(c3cnc4c(-c5cc(C(F)(F)F)nc6ccccc56)cnn4c3)CC2)CC1` [Compound 236]: the half-inhibitory concentration (IC50) worked out at 267 nM with TGFβ and 975 nM at ALK2.
For the compound `CN1CCN(C2CCN(c3cnc4c(-c5ccnc6ccc(F)cc56)cnn4c3)CC2)CC1` [Compound 251], the IC50 stood at 209 nM in the experiment with TGFβ and 26 nM on ALK2.
Consider `Cc1cc(-c2cnn3cc(N4CCC(N5CCN(C)CC5)CC4)cnc23)c2cc(F)ccc2n1` [Compound 275], for which the values for the IC50 in the experiment on TGFβ and at ALK2 were 72 nM and 133 nM, respectively.
The matching figures for `COc1ccc2ncc(F)c(-c3cnn4cc(N5CCC(N6CCN(C)CC6)CC5)cnc34)c2c1` [Compound 271]: > 3000 nM and > 3000 nM.
As to `COc1cc2c(-c3cnn4cc(N5CCC(N6CCNCC6)CC5)cnc34)ccnc2cc1F` [Compound 39, 7-fluoro-6-methoxy-4-[6-(4-piperazin-1-yl-1-piperidyl)pyrazolo[1,5-a]pyrimidin-3-yl]quinoline], the figures for the IC50 in the experiment on TGFβ and on ALK2 were 69 nM and 11 nM, respectively.
As for `CN1CCN(C2CCN(c3cnc4c(-c5ccnc6ccsc56)cnn4c3)CC2)CC1` [Compound 248], the IC50 came to 2880 nM in the experiment with TGFβ and 57 nM on ALK2.
The matching figures for `COc1cc2c(-c3cnn4cc(N5CCC(N6CCN(C)CC6)CC5)cnc34)ccnc2cc1O` [Compound 239]: > 1000 nM and 32 nM.
The like results for `COc1cc2c(-c3cnn4cc(N5CCC(N6CCOCC6)CC5)cnc34)ccnc2cc1F` [Compound 16] were, in that order, 20 nM and 8 nM.
The matching figures for `CN1CCN(C2CN(c3cnc4c(-c5cccc6c(C(N)=O)cccc56)cnn4c3)C2)CC1` [Compound 307]: > 3000 nM and > 1000 nM.
With `COc1cc2c(-c3cnn4cc(N5CCN(c6ccnc(C)n6)CC5)cnc34)ccnc2cc1F` [Compound 203], the IC50 with TGFβ was > 3000 nM; on ALK2, 26 nM.
Take `CN1CCN(C2CCN(c3cnc4c(-c5ccnc6cc(F)c(O)cc56)cnn4c3)CC2)CC1` [Compound 242]: the IC50 in the experiment on TGFβ is < 10 nM; at ALK2, 37 nM.
For the compound `Cc1cc(-c2cnn3cc(N4CC5(CC(N)C5)C4)cnc23)c2ccccc2n1` [Example 295], the IC50 with TGFβ turned out to be 389 nM; on ALK2 it was 13 nM.
The matching figures for `CN1CCN(C2CCN(c3cnc4c(-c5ccnc6ccc(C#N)cc56)cnn4c3)CC2)CC1` [Compound 234]: > 1000 nM and > 1000 nM.
For the compound `Cc1cc(-c2cnn3cc(N4CC(N5CCN(C)CC5)C4)cnc23)c2ccccc2n1` [Compound 222], the IC50 is 70 nM in the experiment on TGFβ and 14 nM on ALK2.
For `COc1cc2c(-c3cnn4cc(N5CCC(N6CCN(C)CC6)C(F)C5)cnc34)ccnc2cc1F` (centres unmarked) [Compound 47], the IC50 stood at 483 nM in the experiment on TGFβ and 76 nM at ALK2.
The like results for `Cc1cc2nccc(-c3cnn4cc(N5CCC(N6CCN(C)CC6)CC5)cnc34)c2s1` [Compound 226] were, in that order, > 1000 nM and 18 nM.
Regarding `COc1ccc2nccc(-c3cnn4cc(N5CCC(N6CCCN(C)CC6)CC5)cnc34)c2c1` [Compound 208], the figures for the IC50 with TGFβ and at ALK2 were 685 nM and 104 nM, respectively.
As to `COc1cc2c(-c3cnn4cc(N5CCC(N6CCN(C)CC6C)CC5)cnc34)ccnc2cc1F` (centres unmarked) [Compound 58, 4-[6-[4-(2,4-dimethylpiperazin-1-yl)-1-piperidyl]pyrazolo[1,5-a]pyrimidin-3-yl]-7-fluoro-6-methoxy-quinoline], the IC50 with TGFβ was found to be 970 nM; on ALK2 it was 377 nM.
The matching figures for `Cc1ccc2nccc(-c3cnn4cc(N5CCC(N6CCN(C)CC6)CC5)cnc34)c2c1F` [Compound 278]: 897 nM and 31 nM.
For `CC(=O)N1CCC(N2CCN(c3cnc4c(-c5cc(C)nc6ccccc56)cnn4c3)CC2)CC1` [Compound 24], the results for the IC50 with TGFβ and on ALK2 were 56 nM and 223 nM, respectively.
Turning to `CN1CCN(C2CCN(c3cnc4c(-c5ccnc6cc(F)c(N)cc56)cnn4c3)CC2)CC1` [Compound 264], the values for the IC50 with TGFβ and at ALK2 were 383 nM and 18 nM, respectively.
The like results for `COc1ccc2nccc(-c3cnn4cc(N5CCC(N6CCOCC6)CC5)cnc34)c2c1` [Compound 30] were, in that order, 120 nM and 37 nM.
As for `Cc1cc(-c2cnn3cc(N4CCN(C)CC4)cnc23)c2ccccc2n1` [Compound 196], the IC50 amounted to 126 nM with TGFβ and 935 nM at ALK2.
The like results for `Cc1cc(-c2cnn3cc(N4CCC(N)CC4)cnc23)c2ccccc2n1` [Compound 187] were, in that order, 32 nM and 37 nM.
Take `CN1CCN(C2CCN(c3cnc4c(-c5ccnc6ccc(N(C)C)cc56)cnn4c3)CC2)CC1` [Compound 280]: the IC50 with TGFβ is > 2000 nM; on ALK2, 26 nM.
The like results for `CN1CCN(C2CCN(c3cnc4c(-c5cc(C(F)F)nc6ccccc56)cnn4c3)CC2)CC1` [Compound 238] were, in that order, 306 nM and 175 nM.
The matching figures for `COc1cc2c(-c3cnn4cc(N5CCOCC5)cnc34)ccnc2cc1F` [Compound 192]: 184 nM and 89 nM.
